For the test, the system named is pancreatic lymph nodes (PLN) CD4 and CD8 T cells of humanized T1D mice. Description: In-vitro CFSE proliferation assay of pancreatic lymph node T cells stimulated with rGAD65. The test is classed as cell-based. The note with it: pulse stimulation 4 ug/ml for 4 days; PLN single cell suspension of diabetic mouse; CFSE tracking. How it is done: FIG. 6C: rGAD65 induced proliferation of CD4 and CD8 cells, pancreatic lymph nodes (PLN) were isolated from humanized T1D mice and were stimulated with GAD65 (4 μg/ml) for 4 days (n=4). The proliferation of cells were tracked using CFSE and analyzed by FLOWJO V10 Beta software using fix ratio, fix CV and fix background from the un-stimulated cells.
The diabetogenic T cells are auto-antigen specific in nature. The pancreatic lymph nodes (PLN) of a diabetic mouse were isolated and the single cell suspension was stimulated with recombinant human GAD65 protein (4 ug/ml). In-vitro proliferation assay using carboxyfluorescein succinimidyl ester (CFSE) to track the T cell proliferation was performed. Pulse stimulation with human rGAD65 (4 ug/ml) for 4 days increased the CD4 and CD8 proliferation by 9-10 folds (FIG. 6C).

Consider “human rGAD65: recombinant human Glutamic Acid Decarboxylase 65 protein used as autoantigen stimulus”, for which the “increase of CD4 and CD8 proliferation” value was 9-10 folds.

These data come from patent US11974552B2, “Transgenic C57BL6-BTBR mouse with a humanized MHC II gene that expresses GAD65” (The University of Toledo, priority 2018, dated 2024).
